Assay: Modulation of human utrophinA expressed in mouse H2K cells assessed as upregulation of utrophin production after 24 hrs by luciferase reporter gene assay

Row | EC50 | SMILES
1 | 332 nM | CCP(=O)(OC)c1ccc2oc(-c3ccc4ccncc4c3)nc2c1 (stereo not given)
2 | 157 nM | CCP(=O)(OC)c1ccc2oc(-c3ccc4cccnc4c3)nc2c1 (stereo not given)
3 | 146 nM | CNS(=O)(=O)c1ccc2oc(-c3ccc4ccccc4c3)nc2c1
4 | 110 nM | O=S1(=O)CCCN1c1ccc2oc(-c3ccc4ccccc4c3)nc2c1
5 | 4 nM | CCP(=O)(OC)c1ccc2oc(-c3ccc4ccccc4c3)nc2c1 (stereo not given)
6 | 823 nM | CCP(=O)(OC)c1ccc2oc(-c3cccc(F)c3)nc2c1 (stereo not given)
7 | 71 nM | CCP(=O)(OC)c1ccc2nc(-c3ccc4ccccc4c3)oc2c1 (stereo not given)
8 | 928 nM | CCP(=O)(OC)c1ccc2nc(-c3ccc4cccnc4c3)oc2c1 (stereo not given)
9 | 118 nM | CCP(=O)(OC)c1ccc2oc(-c3ccc(Cl)c(Cl)c3)nc2c1 (stereo not given)
10 | 766 nM | CCP(=O)(OC)c1ccc2nc(/C=C/c3ccccc3)oc2c1 (stereo not given)
11 | 826 nM | COP(=O)(c1ccccc1)c1ccc2oc(-c3ccc(F)cc3)nc2c1 (stereo not given)
12 | 187 nM | CCS(=O)(=O)c1ccc2oc(-c3ccc4ccccc4c3)nc2c1 [BMN 195]
13 | 2250 nM | CCP(=O)(OC)c1ccc2nc(-c3cccc(F)c3)oc2c1 (stereo not given)
14 | 1770 nM | CCP(=O)(OC)c1ccc2oc(-c3ccc(C(F)(F)F)o3)nc2c1 (stereo not given)
15 | 777 nM | CCP(=O)(OC)c1ccc2oc(-c3ccc(F)cc3F)nc2c1 (stereo not given)
16 | 1760 nM | CCP(=O)(OC)c1ccc2nc(-c3ccc(F)cc3F)oc2c1 (stereo not given)
17 | 198 nM | CCP(=O)(OC)c1ccc2oc(-c3cccc(Cl)c3F)nc2c1 (stereo not given)
18 | 148 nM | COP(=O)(c1ccc2oc(-c3ccc4ccccc4c3)nc2c1)C(C)(C)C (stereo not given)
19 | 861 nM | CCP(=O)(OC)c1ccc2oc(-c3ccccc3C(F)(F)F)nc2c1 (stereo not given)
20 | 1770 nM | CCP(=O)(OC)c1ccc2oc(-c3c(F)ccc(Cl)c3F)nc2c1 (stereo not given)
21 | 1950 nM | CCP(=O)(OC)c1ccc2nc(-c3cccc(Cl)c3Cl)oc2c1 (stereo not given)
22 | 1250 nM | CCOP(=O)(CC)c1ccc2oc(-c3ccc(F)cc3)nc2c1 (stereo not given)

Row | EC50 | SMILES
23 | 62 nM | CCP(=O)(OC)c1ccc2oc(-c3cnc4ccccc4c3)nc2c1 (stereo not given)
24 | 168 nM | CCP(=O)(OC)c1ccc2oc(-c3ccc(Cl)s3)nc2c1 (stereo not given)
25 | 244 nM | CCP(=O)(OC)c1ccc2oc(-c3cccc(Cl)c3Cl)nc2c1 (stereo not given)
26 | 234 nM | COP(=O)(c1ccc2nc(-c3ccc4ccccc4c3)oc2c1)C(C)C (stereo not given)
27 | 85 nM | CCP(=O)(OC)c1ccc2nc(-c3ccc4ncccc4c3)oc2c1 (stereo not given)
28 | 1190 nM | CCP(=O)(OC)c1cccc2oc(-c3ccc(F)cc3)nc12 (stereo not given)
29 | 71 nM | CCP(=O)(OC)c1ccc2nc(-c3cnc4ccccc4c3)oc2c1 (stereo not given)
30 | 34 nM | COP(=O)(c1ccc2oc(-c3ccc4ccccc4c3)nc2c1)C(C)C (stereo not given)
31 | 164 nM | CCP(=O)(OC)c1ccc2oc(-c3ccc4ncccc4c3)nc2c1 (stereo not given)
32 | 1140 nM | CCP(=O)(OC)c1ccc2nc(-c3ccc4ccncc4c3)oc2c1 (stereo not given)
33 | 38 nM | CC(C)C(=O)Nc1ccc2oc(-c3ccc4ccccc4c3)nc2c1
34 | 1760 nM | CCP(=O)(OC)c1ccc2nc(-c3ccc4cnccc4c3)oc2c1 (stereo not given)
35 | 1230 nM | CCP(=O)(OC)c1ccc2nc(-c3ccc(F)cc3)oc2c1 (stereo not given)
36 | 163 nM | CCP(=O)(OC)c1ccc2oc(/C=C/c3ccccc3)nc2c1 (stereo not given)
37 | 1510 nM | COP(=O)(c1ccc2nc(-c3ccc(F)cc3)oc2c1)C(C)C (stereo not given)
38 | 26 nM | CCOP(=O)(CC)c1ccc2oc(-c3ccc4ccccc4c3)nc2c1 (stereo not given)
39 | 108 nM | CCOP(=O)(CC)c1ccc2nc(-c3ccc4ccccc4c3)oc2c1 (stereo not given)
40 | 1140 nM | CCP(=O)(OC)c1ccc2oc(-c3ccc4cnccc4c3)nc2c1 (stereo not given)
41 | 10 nM | CC(=O)Nc1ccc2oc(-c3ccc4ccccc4c3)nc2c1
42 | 303 nM | COP(=O)(c1ccc2oc(-c3ccc(F)cc3)nc2c1)C(C)C (stereo not given)
43 | 548 nM | CCP(=O)(OC)c1ccc2oc(-c3ccc(C(F)(F)F)cc3)nc2c1 (stereo not given)
44 | 1510 nM | CCP(=O)(OC)c1ccc2oc(-c3sccc3Cl)nc2c1 (stereo not given)

Row | SMILES | EC50
45 | CCP(=O)(OC)c1ccc2oc(-c3ccc(Cl)cc3)nc2c1 (stereo not given) | 112 nM
